This note sets out measurements from patent US20220313698A1, “MODULATORS OF CYSTIC FIBROSIS TRANSMEMBRANE CONDUCTANCE REGULATOR” (Vertex Pharmaceuticals Incorporated, priority 2019, published 2022).

The conditions of data set [1]: snar bond, 15-membered ring.
The conditions of data set [2]: snar bond.
For data set [3], the target named is T1, CFTR-mediated chloride transport (Homo sapiens, UniProt P13569). Description: Corrector Assay B - membrane potential dye assay (enteroid cells).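 As to all read-outs here: methyl oxonol membrane potential fluorescence followed over 15 min after switching to chloride-free buffer with forskolin, 100 µM IBMX and ivacaftor, in presence of CaCC blockers.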 Particulars: for Corrector Assay B % activity: % of chloride transport of triple combination control (3 μM Compound A + 3 μM tezacaftor + 300 nM ivacaftor); for EC50: read-out: Corrector Assay B EC50, human intestinal enteroid cells, 18-24 h incubation, acute 10 μM forskolin + 300 nM ivacaftor.
Description: Base medium (ADF+++) consisted of Advanced DMEM/Ham's F12, 2 mM Glutamax, 10 mM HEPES, 1 μg/ml penicillin/streptomycin.
Intestinal enteroid maintenance medium (IEMM) consisted of ADF+++, 1×B27 supplement, 1×N2 supplement, 1.25 mM N-acetyl cysteine, 10 mM Nicotinamide, 50 ng/mL hEGF, 10 nM Gastrin, 1 μg/mL hR-spondin-1, 100 ng/mL hNoggin, TGF-b type 1 inhibitor A-83-01, 100 μg/mL Primocin, 10 μM P38 MAPK inhibitor SB202190.
Bath 1 Buffer consisted of 1 mM MgCl2, 160 mM NaCl, 4.5 mM KCl, 10 mM HEPES, 10 mM Glucose, 2 mM CaCl2).
Chloride Free Buffer consisted of 1 mM Magnesium Gluconate, 2 mM Calcium Gluconate, 4.5 mM Potassium Gluconate, 160 mM Sodium Gluconate, 10 mM HEPES, 10 mM Glucose.
Bath 1 Dye Solution consisted of Bath 1 Buffer, 0.04% Pluronic F127, 20 μM Methyl Oxonol, 30 μM CaCCinh-A01, 30 μM Chicago Sky Blue.
Chloride Free Dye Solution consisted of Chloride Free Buffer, 0.04% Pluronic F127, 20 μM Methyl Oxonol, 30 μM CaCCinh-A01, 30 μM Chicago Sky Blue.
Chloride Free Dye Stimulation Solution consisted of Chloride Free Dye Solution, 10 μM forskolin, 100 μM IBMX, and 300 nM Ivacaftor.
Cells were recovered in cell recovery solution, collected by centrifugation at 650 rpm for 5 min at 4° C., resuspended in TryPLE and incubated for 5 min at 37° C. Cells were then collected by centrifugation at 650 rpm for 5 min at 4° C. and resuspended in IEMM containing 10 μM ROCK inhibitor (RI). The cell suspension was passed through a 40 μm cell strainer and resuspended at 1×10^6 cells/mL in IEMM containing 10 μM RI. Cells were seeded at 5000 cells/well into multi-well plates and incubated for overnight at 37° C., 95% humidity and 5% CO2 prior to assay.
Briefly, cells were washed 5 times in Bath 1 Buffer. Bath 1 Dye Solution was added and the cells were incubated for 25 min at room temperature. Following dye incubation, cells were washed 3 times in Chloride Free Dye Solution. Chloride transport was initiated by addition of Chloride Free Dye Stimulation Solution and the fluorescence signal was read for 15 min. The CFTR-mediated chloride transport for each condition was determined from the AUC of the fluorescence response to acute forskolin and 300 nM N-[2,4-bis(1,1-dimethylethyl)-5-hydroxyphenyl]-1,4-dihydro-4-oxoquinoline-3-carboxamide stimulation. Chloride transport was then expressed as a percentage of the chloride transport following treatment with 3 μM Compound A, 3 μM (R)-1-(2,2-difluorobenzo[d][1,3]dioxol-5-yl)-N-(1-(2,3-dihydroxypropyl)-6-fluoro-2-(1-hydroxy-2-methylpropan-2-yl)-1H-indol-5-yl)cyclopropanecarboxamide and 300 nM acute N-[2,4-bis(1,1-dimethylethyl)-5-hydroxyphenyl]-1,4-dihydro-4-oxoquinoline-3-carboxamide triple combination control (% Activity).

The target of data set [4] is T1, CFTR-mediated chloride transport. Description: Corrector Assay A - membrane potential dye assay (enteroid cells). Particulars: for Corrector Assay A % activity: % of chloride transport of triple combination control (1 μM (14S)-dispiro macrocycle + 3 μM tezacaftor + 300 nM ivacaftor); for EC50: read-out: Corrector Assay A EC50, human intestinal enteroid cells, 18-24 h incubation, acute 10 μM forskolin + 300 nM ivacaftor.

Each structure is given as a SMILES string. Where two headings read alike, the source gives them in different places.

Regarding `CC1(C)CC2CN1c1nc(-n3ccc(OCCC4C5(CC5)C45CC5)n3)ccc1C(=O)NS(=O)(=O)c1cccc(n1)NCCC2CCc1ccccc1` (centres unmarked), the ring closure, isolated yield in data set [1] (from CC1(C)CC(C(CCNc2cccc(S(=O)(=O)NC(=O)c3ccc(-n4ccc(OCCC5C6(CC6)C56CC6)n4)nc3Cl)n2)CCc2ccccc2)CN1, K2CO3, NMP, 64.5 mM, 150.0 °C, 20.0 h, 2 steps) was 61%.

In data set [1] (from CC1(C)C[C@H](CCCNc2cccc(S(=O)(=O)NC(=O)c3ccc(-n4ccc(OCCC5C6(CC6)C56CC6)n4)cc3F)n2)CN1, Cs2CO3, DMSO, 67.0 mM, 150.0 °C, 96.0 h), `CC1(C)C[C@@H]2CCCNc3cccc(n3)S(=O)(=O)NC(=O)c3ccc(-n4ccc(OCCC5C6(CC6)C56CC6)n4)cc3N1C2` gave a ring closure, isolated yield of 29%.

Regarding `CC1(C)C[C@@H]2CCC(c3ccccn3)Nc3cccc(n3)S(=O)(=O)NC(=O)c3ccc(-n4ccc(OCCC5(C(F)(F)F)CC5)n4)nc3N1C2` (some centres unmarked), in data set [1] (from CC1(C)C[C@H](CCC(Nc2cccc(S(=O)(=O)NC(=O)c3ccc(-n4ccc(OCCC5(C(F)(F)F)CC5)n4)nc3Cl)n2)c2ccccn2)CN1, K2CO3/3A MS, DMSO, 26.1 mM, 155.0 °C, 18.0 h, 2 steps), the ring closure, isolated yield amounted to 38%.

As for `CC1(C)C[C@@H]2CCNCc3cccc(n3)S(=O)(=O)NC(=O)c3ccc(-n4ccc(OCCC5C6(CC6)C56CC6)n4)nc3N1C2`, the ring closure, isolated yield in data set [1] (from CC1(C)C[C@H](CCNCc2cccc(S(=O)(=O)NC(=O)c3ccc(-n4ccc(OCCC5C6(CC6)C56CC6)n4)nc3Cl)n2)CN1, K2CO3, DMSO, 57.3 mM, 120.0 °C, 24.0 h) is 3%.

`CC(C)(C)c1ccnc(C2CC[C@@H]3CN(c4nc(C(C)(C)C)c(Br)cc4C(=O)NS(=O)(=O)c4cccc(n4)N2)C(C)(C)C3)c1` (some centres unmarked) registered a ring closure, isolated yield in data set [1] (from CC(C)(C)OC(=O)N1C[C@@H](CCC(Nc2cccc(S(=O)(=O)NC(=O)c3cc(Br)c(C(C)(C)C)nc3Cl)n2)c2cc(C(C)(C)C)ccn2)CC1(C)C, K2CO3, NMP, 61.5 mM, 160.0 °C, 2 steps) of 56%.

Turning to `CC(C)(C)CC1CNc2cccc(n2)S(=O)(=O)NC(=O)c2ccc(C(C)(C)C)nc2N2C[C@@H](C1)CC2(C)C` (some centres unmarked), the ring closure, isolated yield in data set [1] (from CC(C)(C)CC(CNc1cccc(S(=O)(=O)NC(=O)c2ccc(C(C)(C)C)nc2F)n1)C[C@@H]1CNC(C)(C)C1, K2CO3, DMSO, 94.7 mM, 120.0 °C, 24.0 h) is 27%.

Regarding `CC(C)(C)c1ccnc(C2CC[C@@H]3CN(c4cc(C(C)(C)C)c(Br)cc4C(=O)NS(=O)(=O)c4cccc(n4)N2)C(C)(C)C3)c1` (some centres unmarked), the ring closure, isolated yield in data set [1] (from CC1(C)C[C@H](CCC(Nc2cccc(S(=O)(=O)NC(=O)c3cc(Br)c(C(C)(C)C)cc3F)n2)c2cc(C(C)(C)C)ccn2)CN1, Cs2CO3, DMSO, 58.3 mM, 150.0 °C, 96.0 h) turned out to be 17%.

As to `CC1(C)C[C@@H]2CCCN(Cc3nn[nH]n3)c3cccc(n3)S(=O)(=O)NC(=O)c3ccc(-n4ccc(OCCC5(C(F)(F)F)CC5)n4)nc3N1C2` [Compound 372, (14S)-12,12-Dimethyl-18-[(2H-1,2,3,4-tetrazol-5-yl)methyl]-8-(3-{2-[1-(trifluoromethyl)cyclopropyl]ethoxy}-1H-pyrazol-1-yl)-2λ^6-thia-3,9,11,18,23-pentaazatetracyclo[17.3.1.111,14.05,10]tetracosa-1(23),5(10),6,8,19,21-hexaene-2,2,4-trione], in data set [2] (from CC1(C)C[C@H](CCCN(Cc2nn[nH]n2)c2cccc(S(=O)(=O)NC(=O)c3ccc(-n4ccc(OCCC5(C(F)(F)F)CC5)n4)nc3Cl)n2)CN1, 15-membered ring, K2CO3/3A MS, DMSO, 25.8 mM, 155.0 °C, 18.0 h, 2 steps), the ring closure, yield after HPLC is 18%. In data set [3], the “Corrector Assay B % activity” value is listed as “+++ (+++ is >60%)” and the EC50 was 1000 to 3000 nM.

For `CC(C)(C)c1ccc2c(n1)N1C[C@@H](CCCNc3cccc(n3)S(=O)(=O)NC2=O)CC1(C)C` [Compound 296, (14S)-8-tert-Butyl-12,12-dimethyl-2λ^6-thia-3,9,11,18,23-pentaazatetracyclo[17.3.1.111,14.05,10]tetracosa-1(23),5(10),6,8,19,21-hexaene-2,2,4-trione], the ring closure, yield after HPLC in data set [2] (from CC1(C)C[C@H](CCCNc2cccc(S(=O)(=O)NC(=O)c3ccc(C(C)(C)C)nc3Cl)n2)CN1, 15-membered ring, K2CO3/3A MS, DMSO, 53.4 mM, 165.0 °C, 60.0 h, 2 steps) amounted to 43%. For the same compound, in data set [4], the “Corrector Assay A % activity” value is “+++ (+++ is >60%)” and the EC50 was under 1000 nM. For the same compound, in data set [3], the “Corrector Assay B % activity” value is given as “+++ (+++ is >60%)” and the EC50 is under 1000 nM.

`CC(C)(C)c1ccnc(C2CC[C@@H]3CN(c4nc(-n5ccc(OCCC6C7(CC7)C67CC7)n5)ccc4C(=O)NS(=O)(=O)c4cccc(n4)N2)C(C)(C)C3)c1` (some centres unmarked) displayed a ring closure, isolated yield in data set [1] (from CC(C)(C)OC(=O)N1C[C@@H](CCC(Nc2cccc(S(=O)(=O)NC(=O)c3ccc(-n4ccc(OCCC5C6(CC6)C56CC6)n4)nc3Cl)n2)c2cc(C(C)(C)C)ccn2)CC1(C)C, K2CO3, NMP, 48.8 mM, 140.0 °C, 2 steps) of 44.5%.

For `CC(C)(C)c1ccnc(C2CC[C@H]3CCCN(C3)c3nc(C(C)(C)C)ccc3C(=O)NS(=O)(=O)c3cccc(n3)N2)c1` (some centres unmarked), the ring closure, isolated yield in data set [1] (from CC(C)(C)c1ccnc(C(CC[C@H]2CCCNC2)Nc2cccc(S(=O)(=O)NC(=O)c3ccc(C(C)(C)C)nc3F)n2)c1, K2CO3, DMSO, 69.4 mM, 120.0 °C, 24.0 h) was found to be 17%.

As to `CC1(C)C[C@@H]2CCCN(CC(O)CO)c3cccc(n3)S(=O)(=O)NC(=O)c3ccc(-n4ccc(OCCC5(C(F)(F)F)CC5)n4)nc3N1C2` (stereo partly drawn) [Compound 382, (14S)-18-(2,3-dihydroxypropyl)-12,12-dimethyl-8-(3-{2-[1-(trifluoromethyl)cyclopropyl]ethoxy}-1H-pyrazol-1-yl)-2λ^6-thia-3,9,11,18,23-pentaazatetracyclo [17.3.1.111,14.05,10]tetracosa-1(22),5,7,9,19(23),20-hexaene-2,2,4-trione], in data set [2] (from CC(C)(C)OC(=O)N1C[C@@H](CCCN(CC2COC(C)(C)O2)c2cccc(S(=O)(=O)NC(=O)c3ccc(-n4ccc(OCCC5(C(F)(F)F)CC5)n4)nc3Cl)n2)CC1(C)C, 15-membered ring, K2CO3/4A MS, DMSO, 38.5 mM, 140.0 °C, 2 steps), the ring closure, yield after HPLC amounted to 59%. Besides, in data set [3], the “Corrector Assay B % activity” value is “+++ (+++ is >60%)” and the EC50 was under 1000 nM.

For the compound `CC1(C)C[C@@H]2CCCn3nnnc3CNc3cccc(n3)S(=O)(=O)NC(=O)c3ccc(-n4ccc(OCCC5(C(F)(F)F)CC5)n4)nc3N1C2` [Compound 380, (12S)-14,14-dimethyl-18-(3-{2-[1-(trifluoromethyl)cyclopropyl]ethoxy}-1H-pyrazol-1-yl)-24λ^6-thia-2,5,6,7,8,15,17,23,29-noNaazapentacyclo [23.3.1.112,15.04,8.016,21]triaconta-1(28),4,6,16,18,20,25(29),26-octaene-22,24,24-trione], the ring closure, yield after HPLC in data set [2] (from CC1(C)C[C@H](CCCn2nnnc2CNc2cccc(S(=O)(=O)NC(=O)c3ccc(-n4ccc(OCCC5(C(F)(F)F)CC5)n4)nc3Cl)n2)CN1, 18-membered ring, K2CO3/3A MS, DMSO, 35.1 mM, 155.0 °C, 16.0 h, 2 steps) came to 41%. Besides, in data set [3], the “Corrector Assay B % activity” value is “+++ (+++ is >60%)” and the EC50 was under 1000 nM.

Turning to `CC(C)(C)c1ccc2c(n1)N1C[C@@H](CC[C@H](c3cccc(Br)n3)Nc3cccc(n3)S(=O)(=O)NC2=O)CC1(C)C` (single isomer, unassigned) [Compound 215], in data set [2] (from CC1(C)C[C@H](CCC(Nc2cccc(S(=O)(=O)NC(=O)c3ccc(C(C)(C)C)nc3F)n2)c2cccc(Br)n2)CN1, 15-membered ring, K2CO3, NMP, 21.9 mM, 165.0 °C, 16.0 h), the ring closure, yield after HPLC came out at 46%. In data set [4], the “Corrector Assay A % activity” value is recorded as “+++ (+++ is >60%)” and the EC50 was under 1000 nM.

With `CC1(C)CCCc2cc3c(nc21)N1C[C@@H](CCCNc2cccc(n2)S(=O)(=O)NC3=O)CC1(C)C` [Compound 265, (18S)-11,11,16,16-Tetramethyl-2λ^6-thia-3,13,15,22,27-pentaazapentacyclo[21.3.1.115,18.05,14.07,12]octacosa-1(27),5(14),6,12,23,25-hexaene-2,2,4-trione], in data set [2] (from CC1(C)C[C@H](CCCNc2cccc(S(=O)(=O)NC(=O)c3cc4c(nc3Cl)C(C)(C)CCC4)n2)CN1, 15-membered ring, K2CO3/3A MS, NMP, 33.9 mM, 170.0 °C, 84.0 h, 2 steps), the ring closure, yield after HPLC was 11%. In data set [4], the “Corrector Assay A % activity” value is “++ (++ is 30-60%)” and the EC50 is under 1000 nM.

Regarding `CC1(C)C[C@@H]2CC[C@H](c3cccc(C(F)(F)F)n3)Nc3cccc(n3)S(=O)(=O)NC(=O)c3ccc(Br)nc3N1C2` [Compound 56, (14S,17R)-8-Bromo-12,12-dimethyl-17-[6-(trifluoromethyl)pyridin-2-yl]-2λ^6-thia-3,9,11,18,23-pentaazatetracyclo[17.3.1.111,14.05,10]tetracosa-1(22),5,7,9,19(23),20-hexaene-2,2,4-trione], the ring closure, yield after HPLC in data set [2] (from CC1(C)C[C@@H](CCC(Nc2cccc(S(=O)(=O)NC(=O)c3ccc(Br)nc3Cl)n2)c2cccc(C(F)(F)F)n2)CN1, 15-membered ring, K2CO3, DMA, 98.5 mM, 140.0 °C) amounted to 21%. Besides, in data set [4], the “Corrector Assay A % activity” value is reported as “+ (+ is <30%)” and the EC50 is over 3000 nM.

As for `CC(C)(C)c1ccc2c(n1)N1C[C@@H](CCCn3ccc4ccc(cc43)S(=O)(=O)NC2=O)CC1(C)C` [Compound 260, (5S)-11-tert-Butyl-7,7-dimethyl-17λ^6-thia-1,8,10,16-tetraazapentacyclo[16.5.2.15,8.09,14.021,24]hexacosa-9(14),10,12,18,20,22,24-heptaene-15,17,17-trione], in data set [2] (from CC(C)(C)OC(=O)N1C[C@@H](CCCn2ccc3ccc(S(=O)(=O)NC(=O)c4ccc(C(C)(C)C)nc4Cl)cc32)CC1(C)C, 15-membered ring, K2CO3, NMP, 118.8 mM, 160.0 °C, 2 steps), the ring closure, yield after HPLC came to 5%. In data set [4], the “Corrector Assay A % activity” value is listed as “+ (+ is <30%)” and the EC50 is under 1000 nM.
